Assays:
[1] = cited from earlier work; for pKa 1 / pKa 2 / pKa 3: Table 1; for pKa of the carboxylic acid(s): carboxylic acid / COOH group
[2] = plasma profiles of Na(HT3), Zn(HT3)2 and [Zn(T3)]n after oral administration (Example 11); assay type: in vivo, male Sprague Dawley rats; settings: for Cmax average / AUC average / FWHM average (Full Width at Half Maximum): PO capsule; for Cmax average: D = duodenum targeting (Eudragit L100-55) for Zn compounds, S = stomach (uncoated gel cap) for Na(HT3); for AUC average / FWHM average (Full Width at Half Maximum): D for Zn compounds, S for Na(HT3)
Protocol: Duodenum targeting (D) is accomplished by hand coating caps with Eudragit L100-55 (Acryl-Eze, water solvent) designed to dissolve in the duodenum at pH ca. 5.5. Stomach targeting (S) is by using uncoated gel caps.
The Full Width at Half Maximum (FWHM), where Width is measured along the time axis, and Half Maximum is ½Cmax, is a parameter used to evaluate the degree of extended release of drug absorption.

[3] = pH 5.0 and above; cited from earlier work
[4] = in vivo; cited from earlier work

Row | SMILES | pKa 1 [1] | pKa 2 [1] | also measured
1 | CC1(C)S[C@@H]2[C@H](NC(=O)[C@H](N)c3ccc(O)cc3)C(=O)N2[C@H]1C(=O)O [Amoxicillin] | 6.71 | 9.41 | pKa of the carboxylic acid(s) [1]: 6.71; pKa of the phenol ([1]; phenol group): 9.41
2 | CO[C@@]1(NC(=O)C2SC(=C(C(N)=O)C(=O)O)S2)C(=O)N2C(C(=O)O)=C(CSc3nnnn3C)CS[C@@H]21 (stereo partly shown) [Cefotetan] | ca. 2 | ca. 3 | pKa of the carboxylic acid(s) [1]: 2-3
3 | CN(C)[C@@H]1C(O)=C(C(N)=O)C(=O)[C@@]2(O)C(O)=C3C(=O)c4c(O)ccc(Cl)c4[C@@](C)(O)[C@H]3C[C@@H]12 [Chlortetracycline] | 3.33 | 7.55 | pKa 3 [1]: 9.33
4 | CN1C[C@@H]2C[C@H]1CN2c1cc2c(cc1F)c(=O)c(C(=O)O)cn2C1CC1 [Danofloxacin] | 6.07 | 8.56 | 
5 | CN(C)[C@@H]1C(O)=C(C(N)=O)C(=O)[C@@]2(O)C(O)=C3C(=O)c4c(O)ccc(Cl)c4[C@@H](O)[C@H]3C[C@@H]12 [Demeclocycline] | 3.37 | 7.36 | pKa 3 [1]: 9.44
6 | CN1CCN(c2cc3c(cc2F)c(=O)c(C(=O)O)cn3-c2ccc(F)cc2)CC1 [Difloxacin] | 5.66 | 7.24 | 
7 | C[C@H]1c2cccc(O)c2C(=O)C2=C(O)[C@]3(O)C(=O)C(C(N)=O)=C(O)[C@@H](N(C)C)[C@@H]3[C@@H](O)[C@@H]21 [Doxycycline] | 3.02 | 7.97 | pKa 3 [1]: 9.15
8 | CCn1cc(C(=O)O)c(=O)c2cc(F)c(N3CCNCC3)nc21 [Enoxacin] | 6.00 | 8.50 | 
9 | CCN1CCN(c2cc3c(cc2F)c(=O)c(C(=O)O)cn3C2CC2)CC1 [Enrofloxacin] | 3.85 | 6.19 | 
10 | N[C@@H](Cc1cc(I)c(Oc2ccc(O)c(I)c2)c(I)c1)C(=O)O [Example T3, triiodothyronine] |  |  | pKa (physchem): 8.94
11 | CN1CCN(c2c(F)cc3c(=O)c(C(=O)O)cn(CCF)c3c2F)CC1 [Fleroxacin] | 5.46 | 8.00 | 
12 | CN1CCN(c2c(F)cc3c(=O)c(C(=O)O)cn4c3c2OCN4C)CC1 [Marbofloxacin] | 5.69 | 8.02 | 
13 | C=C1c2c(Cl)ccc(O)c2C(=O)C2=C(O)[C@]3(O)C(=O)C(C(N)=O)=C(O)[C@@H](N(C)C)[C@@H]3[C@@H](O)[C@H]12 [Meclocycline] | 4.05 | 6.87 | pKa 3 [1]: 9.59
14 | CN(Cc1cnc2nc(N)nc(N)c2n1)c1ccc(C(=O)N[C@@H](CCC(=O)O)C(=O)O)cc1 [Methotrexate] | 4.8 |  | 
15 | N[C@@H](Cc1cc(I)c(Oc2ccc(O)c(I)c2)c(I)c1)C(=O)[O-].[Na+] [Na(HT3)] |  |  | Cmax average [2]: 0.45 ng/mL; AUC average [2]: 3.71 ng·h/mL; FWHM average (Full Width at Half Maximum) [2]: 4.9 h
16 | CC1COc2c(N3CCN(C)CC3)c(F)cc3c(=O)c(C(=O)O)cn1c23 (stereo not shown) [Ofloxacin] | 6.22 | 7.81 | 
17 | CN(C)[C@@H]1C(O)=C(C(N)=O)C(=O)[C@@]2(O)C(O)=C3C(=O)c4c(O)cccc4[C@@](C)(O)[C@H]3[C@H](O)[C@@H]12 [Oxytetracycline] | 3.22 | 7.46 | pKa 3 [1]: 8.94
18 | CCn1cc(C(=O)O)c(=O)c2cnc(N3CCNCC3)nc21 [Pipemidic acid] | 5.42 | 8.18 | 
19 | O=C(O)c1cn(-c2ccc(F)cc2)c2cc(N3CCNCC3)c(F)cc2c1=O [Sarafloxacin] | 5.62 | 8.18 | 
20 | CCCCC(=O)N(Cc1ccc(-c2ccccc2-c2nnn[nH]2)cc1)[C@H](C(=O)O)C(C)C [Valsartan] |  |  | in vitro dissolution [3]: complete and rapid; bioavailability [4]: about 25%
21 | N[C@@H](Cc1cc(I)c(Oc2ccc(O)c(I)c2)c(I)c1)C(=O)[O-].N[C@@H](Cc1cc(I)c(Oc2ccc(O)c(I)c2)c(I)c1)C(=O)[O-].[Zn+2] [Zn(HT3)2, Bis-T3 Zinc] |  |  | AUC with respect to simulated Cytomel ([2]; PO): comparable AUC; Cmax with respect to simulated Cytomel ([2]; PO): blunted Cmax; Cmax average [2]: 0.24 ng/mL; AUC average [2]: 3.45 ng·h/mL; FWHM average (Full Width at Half Maximum) [2]: 16.6 h
